In ChEMBL document CHEMBL1123001, “Ibotenic acid analogues. Synthesis, molecular flexibility, and in vitro activity of agonists and antagonists at central glutamic acid receptors” (J Med Chem, 1985):
Active and inactive are the calls of the source. No cut-off for these calls is given here.

What was measured:
Rattus norvegicus [1] = species: Rattus norvegicus; assay: Inhibition of [3H]AMPA binding in rat brain membrane was evaluated; assay type: functional
[2] = NMDA Antagonist activity was evaluated; na means no activity; assay type: functional
[3] = Antagonist activity was evaluated by NMDA-induced excitations of feline spinal neuron; activity is seen; assay type: functional; conditions: filed as antagonist
[4] = Antagonist activity was evaluated by NMDA-induced excitations of feline spinal neuron; no activity; assay type: functional
Rattus norvegicus [5] = species: Rattus norvegicus; assay: GDEE-sensitive neuronal excitant (Relative potency) was evaluated; +++; assay type: functional, organism-based
[6] = NMDA Antagonist activity was evaluated; na means no activity; na means no activity; assay type: functional

Row | Structure (SMILES) | IC50 (Rattus norvegicus [1]) [µM] | Antagonist activity [2] | Antagonist activity [3] | Antagonist activity [4] | Relative potency (Rattus norvegicus [5]) | Antagonist activity [6]
1 | Cc1c(O)noc1C(C)C(N)C(=O)O (centres undefined) | > 100 | inactive |  |  |  | 
2 | NC(CCCc1cc(O)no1)C(=O)O (centres undefined) | > 100 |  | Antagonist |  |  | 
3 | CC(C)(C)c1onc(O)c1CC(N)C(=O)O (centres undefined) | 10.6 |  |  | inactive |  | 
4 | NC(CCc1cc(O)no1)C(=O)O (centres undefined) | 64 |  | Antagonist |  |  | 
5 | Cc1onc(O)c1C[C@@H](N)C(=O)O | 4.8 | inactive |  |  |  | 
6 | NC(Cc1c(O)noc1CBr)C(=O)O (centres undefined) | 0.6 | inactive |  |  |  | 
7 | Cc1onc(O)c1C[C@H](N)C(=O)O [(S)-AMPA] | 0.6 | inactive |  |  |  | 
8 | N[C@@H](CCC(=O)O)C(=O)O [GLUTAMIC ACID] | 1.3 | inactive |  |  |  | 
9 | Cc1onc(O)c1CC(N)C(=O)O (racemic) [(R,S)-AMPA] | 0.8 |  |  |  | Active | inactive
